Source: US20160039880A1 (priority 2012, published 2016)
Converted amounts (≈) assume the structure as drawn. Read-outs that look alike come from different tables or passages of the source.

Assays:
[1] = molecular target: Human recombinant cyclophilin A (Cyp A) (Homo sapiens, UniProt P62937); experiment: Protease-free PPIase assay;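 also: cis to trans isomerization of SUC-AAPF-pNA by 2 nM enzyme, read as absorbance at 330 nm over 300 s at 10 °C, catalytic rate corrected for uncatalyzed background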
[2] = Water Solubility Assay (measured in pH 7.8 buffer); assay type: physicochemical; conditions: kinetic from dmso stock;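 also: precipitation onset detected as rise in absorbance at 650 nm across increasing concentrations, after shaking for 18 h, blank wells receiving DMSO only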
Protocol: The aqueous solubility of a compound of Formula I in buffer (pH 7.8) was measured by recording the onset of precipitation of the compound as a function of increasing concentration. The onset of precipitation, if it occurred, was detected by an increase in absorbance at 650 nm.
Assay Buffer: 35 mM HEPES pH 7.8
Stock solutions of Control and Test Compounds: 10 mM in 100% DMSO
10 mM stock solutions of control and test compounds were prepared in 100% DMSO.
Assay buffer (247.5 μl) was placed into flat bottomed transparent 96-well plate. For blank samples DMSO (2.5 μl) was added. For test and control samples 2.5 μl of the appropriate DMSO dilution stocks were added to the appropriate well. All test and control compounds were performed in triplicate.
The plates were sealed with adhesive plate seal and shaken at 250 rpm at 25° C. for 18 h on a plate shaker.
After incubation the plate seals were taken off and any bubbles observed in wells removed. The plates were read on a SpectraMaxM5 with a 5 s pre-shake at 650 nm.
Data files were transferred to the appropriate worksheet and the solubility range of the compounds was calculated from the data.

[3] = 35 mM HEPES buffer pH 7.8, 25 °C, aqueous buffer, pH 7.8 buffer, read-out: Water Solubility Assay

Human recombinant cyclophilin A (Cyp A), sequence (P62937 whole entry): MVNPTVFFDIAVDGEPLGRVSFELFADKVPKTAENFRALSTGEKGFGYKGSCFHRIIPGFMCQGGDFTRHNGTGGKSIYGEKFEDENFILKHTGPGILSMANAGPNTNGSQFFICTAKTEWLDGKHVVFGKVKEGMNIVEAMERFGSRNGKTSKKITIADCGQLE

In the case of `CC[C@H]1NC(=O)[C@@H]([C@H](O)[C@H](C)CCN(C)Cc2ccnn2C)N(C)C(=O)[C@@H](C(C)C)N(C)C(=O)[C@@H](CC(C)C)N(C)C(=O)[C@@H](CC(C)C)N(C)C(=O)[C@H](C)NC(=O)[C@@H](C)NC(=O)[C@@H](CC(C)C)N(C)C(=O)[C@@H](C(C)C)NC(=O)[C@H](CC(C)C)N(C)C(=O)[C@@H](C)N(C)C1=O` [Compound DJ, [(3R,4R,5S)-4-Hydroxy-3-methyl-5-(methylamino)-1-({2-methyl-2H-pyrazol-3-ylmethyl}-methylamino)-hexanoic acid]^1[(R)-methyl-Sar]^3 cyclosporin A], the Ki [1] is reported as 5.4 nM and the solubility at 18 h [2, 3] is reported as greater than 100 µM.
`CC[C@H]1NC(=O)[C@@H]([C@H](O)[C@H](C)CCN2CCOC(c3ccccc3)C2)N(C)C(=O)[C@@H](C(C)C)N(C)C(=O)[C@@H](CC(C)C)N(C)C(=O)[C@@H](CC(C)C)N(C)C(=O)[C@H](C)NC(=O)[C@@H](C)NC(=O)C(CC(C)C)N(C)C(=O)[C@@H](C(C)C)NC(=O)[C@H](CC(C)C)N(C)C(=O)[C@@H](C)N(C)C1=O` (stereo partly drawn) [Compound DZ, [(3R,4R,5S)-4-Hydroxy-3-methyl-5-(methylamino)-1-(2-phenyl-morpholin-4-yl)-hexanoic acid]^1[(R)-methyl-Sar]^3 cyclosporin A] showed a Ki [1] of 6 nM and a solubility at 18 h [2, 3] of 25 to 50 µM (≈ 33.8 to 67.6 µg/mL).
`CS[C@@H]1C(=O)N(C)[C@@H](CC(C)C)C(=O)N[C@H](C(C)C)C(=O)N(C)[C@H](CC(C)C)C(=O)N[C@H](C)C(=O)N[C@@H](C)C(=O)N(C)[C@H](CC(C)C)C(=O)N(C)[C@H](CC(C)C)C(=O)N(C)[C@H](C(C)C)C(=O)N(C)[C@H]([C@H](O)[C@H](C)CCN2CCOCC2)C(=O)N[C@H](C(C)C)C(=O)N1C` [Compound AM, [(3R,4R,5S)-4-Hydroxy-3-methyl-5-(methylamino)-1-morpholino-hexanoic acid]^1[(S)-thio-methyl-Sar]^3 cyclosporin D] showed a Ki [1] of 1.9 nM and a solubility at 18 h ([2]; 25 °C, pH 7.8, aqueous buffer) of 25 to 50 µM (≈ 33 to 66.1 µg/mL).
`CC[C@H]1NC(=O)[C@@H]([C@H](O)[C@H](C)CCN2CCCC2)N(C)C(=O)[C@@H](C(C)C)N(C)C(=O)[C@@H](CC(C)C)N(C)C(=O)[C@@H](CC(C)C)N(C)C(=O)[C@H](C)NC(=O)[C@@H](C)NC(=O)C(CC(C)C)N(C)C(=O)[C@@H](C(C)C)NC(=O)[C@H](CC(C)C)N(C)C(=O)[C@@H](C)N(C)C1=O` (stereo partly drawn) [Compound EF, [(3R,4R,5S)-4-Hydroxy-3-methyl-5-(methylamino)-1-(pyrrolidin-1-yl)-hexanoic acid]^1[(R)-methyl-Sar]^3 cyclosporin A] gave a Ki [1] of 40 nM.
Work on `CC[C@H]1NC(=O)[C@@H]([C@H](O)[C@H](C)CCCCCNCCOC)N(C)C(=O)[C@@H](C(C)C)N(C)C(=O)[C@@H](CC(C)C)N(C)C(=O)[C@@H](CC(C)C)N(C)C(=O)[C@H](C)NC(=O)[C@@H](C)NC(=O)[C@@H](CC(C)C)N(C)C(=O)[C@@H](C(C)C)NC(=O)[C@H](CC(C)C)N(C)C(=O)[C@@H](C)N(C)C1=O` [Compound AI, [(6R,7R,8S)-7-Hydroxy-6-methyl-8-(methylamino)-1-N-(2-methoxy)ethylamino-nonanoic acid]^1[(R)-methyl-Sar]^3 cyclosporin A] yielded a Ki [1] of 3.3 nM and a solubility at 18 h ([2]; 25 °C, pH 7.8, aqueous buffer) greater than 100 µM.
With `CC[C@H]1NC(=O)[C@@H]([C@H](O)[C@H](C)CCN(C)CCC(F)(F)F)N(C)C(=O)[C@@H](C(C)C)N(C)C(=O)[C@@H](CC(C)C)N(C)C(=O)[C@@H](CC(C)C)N(C)C(=O)[C@H](C)NC(=O)[C@@H](C)NC(=O)[C@@H](CC(C)C)N(C)C(=O)[C@@H](C(C)C)NC(=O)[C@H](CC(C)C)N(C)C(=O)[C@@H](C)N(C)C1=O` [Compound DN, [(3R,4R,5S)-4-Hydroxy-3-methyl-5-(methylamino)-1-({3,3,3-trifluoropropyl}-methyl-amino)-hexanoic acid]^1[(R)-methyl-Sar]^3 cyclosporin A] the Ki [1] was 5.5 nM and the solubility at 18 h ([2]; 25 °C, pH 7.8, aqueous buffer) was 25 to 50 µM (≈ 32.9 to 65.8 µg/mL).
In the case of `CC[C@H]1NC(=O)[C@@H]([C@H](O)[C@H](C)CCN2CCn3cnnc3C2)N(C)C(=O)[C@@H](C(C)C)N(C)C(=O)[C@@H](CC(C)C)N(C)C(=O)[C@@H](CC(C)C)N(C)C(=O)[C@H](C)NC(=O)[C@@H](C)NC(=O)C(CC(C)C)N(C)C(=O)[C@@H](C(C)C)NC(=O)[C@H](CC(C)C)N(C)C(=O)[C@@H](C)N(C)C1=O` (stereo partly drawn) [Compound DU, [(3R,4R,5S)-1-(5,6-Dihydro-8H-[1,2,4]triazolo[4,3-a]pyrazin-7-yl)-4-Hydroxy-3-methyl-5-(methylamino)-hexanoic acid]^1[(R)-methyl-Sar]^3 cyclosporin A], the Ki [1] is reported as 9.2 nM and the solubility at 18 h [2, 3] is reported as greater than 100 µM.
In the case of `CC[C@H]1NC(=O)[C@@H]([C@H](O)[C@H](C)CCN(C)Cc2cncn2C)N(C)C(=O)[C@@H](C(C)C)N(C)C(=O)[C@@H](CC(C)C)N(C)C(=O)[C@@H](CC(C)C)N(C)C(=O)[C@H](C)NC(=O)[C@@H](C)NC(=O)[C@@H](CC(C)C)N(C)C(=O)[C@@H](C(C)C)NC(=O)[C@H](CC(C)C)N(C)C(=O)[C@@H](C)N(C)C1=O` [Compound DI, [(3R,4R,5S)-4-Hydroxy-3-methyl-5-(methylamino)-1-({3-methyl-3H-imidazol-4-ylmethyl}-methylamino)-hexanoic acid]^1[(R)-methyl-Sar]^3 cyclosporin A], the Ki [1] is reported as 4.3 nM and the solubility at 18 h [2, 3] is reported as greater than 100 µM.
For `CC[C@H]1NC(=O)[C@@H]([C@H](O)[C@H](C)CCN2CCOC(C)(C)C2)N(C)C(=O)[C@@H](C(C)C)N(C)C(=O)[C@@H](CC(C)C)N(C)C(=O)[C@@H](CC(C)C)N(C)C(=O)[C@H](C)NC(=O)[C@@H](C)NC(=O)C(CC(C)C)N(C)C(=O)[C@@H](C(C)C)NC(=O)[C@H](CC(C)C)N(C)C(=O)[C@@H](C)N(C)C1=O` (stereo partly drawn) [Compound DS, [(3R,4R,5S)-1-(3,3-Dimethyl-morpholin-4-yl)-4-hydroxy-3-methyl-5-(methylamino)-hexanoic acid]^1[(R)-methyl-Sar]^3 cyclosporin A], the Ki [1] was 12 nM and the solubility at 18 h ([2]; 25 °C, pH 7.8, aqueous buffer) was 75 to 100 µM (≈ 97.8 to 130 µg/mL).
Compound `CC[C@H]1NC(=O)[C@@H]([C@H](O)[C@H](C)CCN(C)Cc2ccc(Cl)cn2)N(C)C(=O)[C@@H](C(C)C)N(C)C(=O)[C@@H](CC(C)C)N(C)C(=O)[C@@H](CC(C)C)N(C)C(=O)[C@H](C)NC(=O)[C@@H](C)NC(=O)[C@@H](CC(C)C)N(C)C(=O)[C@@H](C(C)C)NC(=O)[C@H](CC(C)C)N(C)C(=O)[C@@H](C)N(C)C1=O` [Compound DQ, [(3R,4R,5S)-4-Hydroxy-3-methyl-5-(methylamino)-1-({5-chloro-pyridin-2-ylmethyl}-methylamino)-hexanoic acid]^1[(R)-methyl-Sar]^3 cyclosporin A] has a Ki [1] of 11 nM.
For `CC[C@H]1NC(=O)[C@@H]([C@H](O)[C@H](C)CCN(C)Cc2ncccc2C(F)(F)F)N(C)C(=O)[C@@H](C(C)C)N(C)C(=O)[C@@H](CC(C)C)N(C)C(=O)[C@@H](CC(C)C)N(C)C(=O)[C@H](C)NC(=O)[C@@H](C)NC(=O)[C@@H](CC(C)C)N(C)C(=O)[C@@H](C(C)C)NC(=O)[C@H](CC(C)C)N(C)C(=O)[C@@H](C)N(C)C1=O` [Compound DR, [(3R,4R,5S)-4-Hydroxy-3-methyl-5-(methylamino)-1-({3-trifluoromethyl-pyridin-2-ylmethyl}-methylamino)-hexanoic acid]^1[(R)-methyl-Sar]^3 cyclosporin A], the Ki [1] was 8.4 nM.
Compound `CC[C@H]1NC(=O)[C@@H]([C@H](O)[C@H](C)CCN(C)Cc2cnn(C)c2)N(C)C(=O)[C@@H](C(C)C)N(C)C(=O)[C@@H](CC(C)C)N(C)C(=O)[C@@H](CC(C)C)N(C)C(=O)[C@H](C)NC(=O)[C@@H](C)NC(=O)[C@@H](CC(C)C)N(C)C(=O)[C@@H](C(C)C)NC(=O)[C@H](CC(C)C)N(C)C(=O)[C@@H](C)N(C)C1=O` [Compound DM, [(3R,4R,5S)-4-Hydroxy-3-methyl-5-(methylamino)-1-({1-methyl-1H-pyrazol-4-ylmethyl}-methylamino)-hexanoic acid]^1[(R)-methyl-Sar]^3 cyclosporin A] has a Ki [1] of 23 nM.
Compound `CC[C@H]1NC(=O)[C@@H]([C@H](O)[C@H](C)CCN(C)Cc2ccc(F)cn2)N(C)C(=O)[C@@H](C(C)C)N(C)C(=O)[C@@H](CC(C)C)N(C)C(=O)[C@@H](CC(C)C)N(C)C(=O)[C@H](C)NC(=O)[C@@H](C)NC(=O)[C@@H](CC(C)C)N(C)C(=O)[C@@H](C(C)C)NC(=O)[C@H](CC(C)C)N(C)C(=O)[C@@H](C)N(C)C1=O` [Compound DP, [(3R,4R,5S)-4-Hydroxy-3-methyl-5-(methylamino)-1-({5-fluoro-pyridin-2-ylmethyl}-methylamino)-hexanoic acid]^1[(R)-methyl-Sar]^3 cyclosporin A] has a Ki [1] of 16.2 nM.
In the case of `CC[C@H]1NC(=O)[C@@H]([C@H](O)[C@H](C)CCCCN2CCOCC2)N(C)C(=O)[C@@H](C(C)C)N(C)C(=O)[C@@H](CC(C)C)N(C)C(=O)[C@@H](CC(C)C)N(C)C(=O)[C@H](C)NC(=O)[C@@H](C)NC(=O)[C@@H](CC(C)C)N(C)C(=O)[C@@H](C(C)C)NC(=O)[C@H](CC(C)C)N(C)C(=O)[C@@H](C)N(C)C1=O` [Compound KG, [(5R,6R,7S)-6-hydroxy-5-methyl-7-(methylamino)-1-(N-morpholino)-octanoic acid]^1[(R)-methyl-Sar]^3 cyclosporin A], the Ki [1] is reported as 3.8 nM.
In the case of `CC[C@H]1NC(=O)[C@@H]([C@H](O)[C@H](C)CCCCN(C)C)N(C)C(=O)[C@@H](C(C)C)N(C)C(=O)[C@@H](CC(C)C)N(C)C(=O)[C@@H](CC(C)C)N(C)C(=O)[C@H](C)NC(=O)[C@@H](C)NC(=O)[C@@H](CC(C)C)N(C)C(=O)[C@@H](C(C)C)NC(=O)[C@H](CC(C)C)N(C)C(=O)[C@@H](C)N(C)C1=O` [Compound KF, [(5R,6R,7S)-1-(dimethylamino)-6-hydroxy-5-methyl-7-(methylamino)-octanoic acid]^1[(R)-methyl-Sar]^3 cyclosporin A], the Ki [1] is reported as 7.8 nM.
For `CC[C@H]1NC(=O)[C@@H]([C@H](O)[C@H](C)CCN2CCCCC2)N(C)C(=O)[C@@H](C(C)C)N(C)C(=O)[C@@H](CC(C)C)N(C)C(=O)[C@@H](CC(C)C)N(C)C(=O)[C@H](C)NC(=O)[C@@H](C)NC(=O)C(CC(C)C)N(C)C(=O)[C@@H](C(C)C)NC(=O)[C@H](CC(C)C)N(C)C(=O)[C@@H](C)N(C)C1=O` (stereo partly drawn) [Compound EA, [(3R,4R,5S)-4-Hydroxy-3-methyl-5-(methylamino)-1-(piperidin-1-yl)-hexanoic acid]^1[(R)-methyl-Sar]^3 cyclosporin A], the Ki [1] was 22 nM.
